Patent publication US10391110B2, “Composition for preventing or treating vascular leak syndrome” (INTELLIGENT SYNTHETIC BIOLOGY CENTER, priority 2015, dated 2019)

Legend:
[1] = system: human umbilical vascular endothelial cells (HUVECs); test: tube formation assay in HUVECs; type: cell-based; conditions: 25 μM ginsenoside, 4 hours, vs DMSO negative control and VEGF-A positive control
Protocol: (§1) The angiogenesis-promoting activities between human umbilical vascular endothelial cells (HUVECs) and human retinal microvascular endothelial cells (HRMECs) using 10 kinds of ginsenoside compounds (CK, Rh2, Rg3, Rb1, F2, Rd, Re, Rg1, Rh1, or F1). That is, HUVECs or HRMECs were cultured in an incubator (5% CO2 and 37° C.) using 2% FBS, EGM-2 (Lonza, Walkersville, Md., USA) medium. A 96-well plate was coated with Matrigel (BD Biosciences) for 1 hour. Then, HUVECs or HRMECs (10^4 cells/well, respectively), which were mixed with a 0.1% FBS-containing EBM-2 medium respectively treated with 25 μM of ginsenoside compounds (CK, Rh2, Rg3, Rb1, F2, Rd, Re, Rg1, Rh1, or F1), were seeded on the 96-well plate. After 4 hours of incubation, a tube formation assay was performed and the number of tubes formed was compared by microscopic observation and photographing (FIGS. 1a, 1b, 2a, and 2b). In particular, the cells cultured after treating with DMSO instead of ginsenoside were used as a negative control, and the cells cultured after treating with VEGF-A, which is known to promote angiogenesis, were used as a positive control.
(§2) The HUVECs or HRMECs, which were cultured by the method of Example 1, were cultured after treating at various concentrations (12.5, 25, or 50 μM) of ginsenoside F1 or Rh1 selected from Example 1 for 4 hours, and the number of tubes formed was compared by performing a tube formation assay (FIGS. 3 and 4). In particular, the cells cultured after treating with DMSO instead of ginsenoside were used as a negative control and the cells cultured after treating with VEGF-A, which is known to promote angiogenesis, were used as a positive control.

[2] = system: human retinal microvascular endothelial cells (HRMECs); test: tube formation assay in HRMECs; type: cell-based; conditions: 25 μM ginsenoside, 4 hours, vs DMSO negative control and VEGF-A positive control
Protocol: as §1, §2

HUVECs [3] = test: MTT cell proliferation assay in HUVECs; type: cell-based, human; conditions: 48 hours, concentrations 0, 3.125, 6.25, 12.5, or 25 μM
Protocol: The HUVECs or HRMECs, which were cultured by the method of Example 1, were cultured after treating at various concentrations (0, 3.125, 6.25, 12.5, or 25 μM) of three kinds of ginsenosides (F1, Rh1, or Rg1), which were confirmed to promote tube formation in Example 1, for 48 hours, and the level of cell proliferation was compared by performing the MTT assay with respect to the cultured cells (FIGS. 5 and 6). In particular, the cells cultured after treating with DMSO instead of ginsenoside were used as a negative control, and the cells cultured after treating with VEGF-A, which is known to promote angiogenesis, were used as a positive control.

HUVECs [4] = test: vascular permeability assay, VEGF-A-treated HUVECs; type: cell-based, human; conditions: for vascular leakage induced by VEGF-A: HUVECs pretreated with 25 μM ginsenoside for 1 hour, then VEGF-A; for level of vascular leakage, pretreatment plus VEGF-A compared to ginsenoside alone: HUVECs, 25 μM ginsenoside pretreatment 1 hour then VEGF-A vs ginsenoside alone
Protocol: The HUVECs, cultured by a method described in Example 1, were pretreated with 25 μM ginsenoside F1 or Rh1 for 1 hour selected from Example 1, treated with VEGF-A, and then subjected to a vascular permeability assay (FIG. 9). In particular, the cells cultured after treating with DMSO instead of ginsenoside were used as a negative control; the cells cultured after treating with VEGF-A, which is known to promote angiogenesis, were used as a positive control; and the cells pretreated with ginsenoside F1 or Rh1 and not treated with VEGF-A were used as a comparative group.

ICR mice = test: VEGF-A-induced vascular leakage in mouse ears (Evans blue); type: in vivo; conditions: ear intradermal 10 μL, ginsenoside 1.25 μM with VEGF-A 250 μg, 30 minutes
Protocol: Seven-week-old male ICR mice were injected with 1% Evans blue dye (200 μL) into the tail vein and allowed to react for 10 minutes to dye the blood in blue.
Then, the mice were intradermally injected in an amount of 10 μL through the ears with PBS (negative control), VEGF-A (250 μg, positive control), ginsenoside F1 (1.25 μM), ginsenoside Rh1 (1.25 μM), VEGF-A (250 μg)/ginsenoside F1 (1.25 μM), or VEGF-A (250 μg)/ginsenoside Rh1 (1.25 μM), respectively.
Thirty minutes thereafter, the mice were subjected to euthanasia and their ears were removed. After confirming the amount of blood leakage by the naked eye (FIG. 10A), the ears were put in formamide and fixed at 37° C. for 24 hours. Then, the effects of F1 or Rh1 on the inhibition of blood leakage were quantitatively evaluated by measuring the absorbance at 620 nm (FIG. 10B).

Compound	number of tubes formed (tube formation) [1]	number of tubes formed (tube formation) [2]	promotion of cell proliferation (HUVECs [3])	vascular leakage induced by VEGF-A (HUVECs [4])	level of vascular leakage, pretreatment plus VEGF-A compared to ginsenoside alone (HUVECs [4])	vascular leakage symptoms induced by VEGF-A (Evans blue, absorbance at 620 nm) (ICR mice)
CC(C)=CCC[C@](C)(O)[C@H]1CC[C@]2(C)[C@@H]1[C@H](O)C[C@@H]1[C@@]3(C)CC[C@H](O[C@@H]4O[C@H](CO)[C@@H](O)[C@H](O)[C@H]4O[C@@H]4O[C@H](CO)[C@@H](O)[C@H](O)[C@H]4O)C(C)(C)[C@@H]3CC[C@]12C [ginsenoside Rg3]	effect of inhibiting tube formation	effect of inhibiting tube formation				
CC(C)=CCCC(C)(OC1OC(CO)C(O)C(O)C1O)C1CCC2(C)C1C(O)CC1C3(C)CCC(O)C(C)(C)C3C(O)CC12C [ginsenoside F1, 20-O-β-D-glucopyranosyl-20(S)-protopanaxatriol]	effect of promoting tube formation at a higher level compared to that of the positive control	effect of promoting tube formation at a higher level compared to that of the positive control	about 20%	vascular leakage was inhibited by the pretreatment	further reduced compared to when the HUVECs were treated with ginsenoside F1 or Rh1 alone	effectively inhibit the vascular leakage symptoms induced by VEGF-A
CC(C)=CCC[C@](C)(O[C@@H]1O[C@H](CO[C@@H]2O[C@H](CO)[C@@H](O)[C@H](O)[C@H]2O)[C@@H](O)[C@H](O)[C@H]1O)[C@H]1CC[C@]2(C)[C@@H]1[C@H](O)C[C@@H]1[C@@]3(C)CC[C@H](O[C@@H]4O[C@H](CO)[C@@H](O)[C@H](O)[C@H]4O[C@@H]4O[C@H](CO)[C@@H](O)[C@H](O)[C@H]4O)C(C)(C)[C@@H]3CC[C@]12C [ginsenoside Rb1]	did not show any noticeable difference	effect of promoting tube formation				
ginsenoside Rb2	effect of inhibiting tube formation	effect of inhibiting tube formation				
CC(C)=CCC[C@](C)(O[C@@H]1O[C@H](CO)[C@@H](O)[C@H](O)[C@H]1O)[C@H]1CC[C@]2(C)[C@@H]1[C@H](O)C[C@@H]1[C@@]3(C)CC[C@H](O)C(C)(C)[C@@H]3[C@@H](O[C@@H]3O[C@H](CO)[C@@H](O)[C@H](O)[C@H]3O[C@@H]3O[C@@H](C)[C@H](O)[C@@H](O)[C@H]3O)C[C@]12C [ginsenoside Re]	effect of promoting tube formation	effect of promoting tube formation				
CC(C)=CCC[C@](C)(O[C@@H]1O[C@H](CO)[C@@H](O)[C@H](O)[C@H]1O)[C@H]1CC[C@]2(C)[C@@H]1[C@H](O)C[C@@H]1[C@@]3(C)CC[C@H](O[C@@H]4O[C@H](CO)[C@@H](O)[C@H](O)[C@H]4O[C@@H]4O[C@H](CO)[C@@H](O)[C@H](O)[C@H]4O)C(C)(C)[C@@H]3CC[C@]12C [ginsenoside Rd]	effect of promoting tube formation	effect of promoting tube formation				
CC(C)=CCC[C@](C)(O[C@@H]1O[C@H](CO)[C@@H](O)[C@H](O)[C@H]1O)[C@H]1CC[C@]2(C)[C@@H]1[C@H](O)C[C@@H]1[C@@]3(C)CC[C@H](O)C(C)(C)[C@@H]3[C@@H](O[C@@H]3O[C@H](CO)[C@@H](O)[C@H](O)[C@H]3O)C[C@]12C [ginsenoside Rg1]	effect of promoting tube formation	effect of promoting tube formation	about 60%			
CC(C)=CCCC(C)(O)C1CCC2(C)C1C(O)CC1C3(C)CCC(O)C(C)(C)C3C(OC3OC(CO)C(O)C(O)C3O)CC12C [ginsenoside Rh1, 6-O-β-D-glucopyranoside-20(S)-protopanaxatriol]	effect of promoting tube formation at a higher level compared to that of the positive control	effect of promoting tube formation at a higher level compared to that of the positive control	about 100%	vascular leakage was inhibited by the pretreatment	further reduced compared to when the HUVECs were treated with ginsenoside F1 or Rh1 alone	effectively inhibit the vascular leakage symptoms induced by VEGF-A
CC(C)=CCC[C@](C)(O[C@@H]1O[C@H](CO)[C@@H](O)[C@H](O)[C@H]1O)[C@H]1CC[C@]2(C)[C@@H]1[C@H](O)C[C@@H]1[C@@]3(C)CC[C@H](O[C@@H]4O[C@H](CO)[C@@H](O)[C@H](O)[C@H]4O)C(C)(C)[C@@H]3CC[C@]12C [ginsenoside F2]	did not show any noticeable difference	effect of promoting tube formation				
CC(C)=CCC[C@](C)(O[C@@H]1O[C@H](CO)[C@@H](O)[C@H](O)[C@H]1O)[C@H]1CC[C@]2(C)[C@@H]1[C@H](O)C[C@@H]1[C@@]3(C)CC[C@H](O)C(C)(C)[C@@H]3CC[C@]12C [ginsenoside CK]	effect of inhibiting tube formation	effect of inhibiting tube formation				
